In US20070128217A1 (priority 2003, published 2007):

What was measured:
[1] = tested on: antibodies in sera from SARS patients (sera 1a, 1b, 2, 6, 37, 62, London, SARS-yellow, SARS-green); type: binding, human; set-up: Binding of serum 6 to linear peptides of protein X1 of SARS-CoV Urbani / Binding of serum 37 to linear peptides of protein X1 of SARS-CoV Urbani / Binding of serum 6 to looped/cyclic peptide (PEPSCAN-ELISA) / Binding of serum 37 to looped/cyclic peptide (PEPSCAN-ELISA) / Binding of serum 37 to looped/cyclic peptides of protein X1 of SARS-CoV Urbani / Binding of serum 6 to linear peptides of protein X2 / Binding of serum 37 to linear peptides of protein X2 / Binding of serum 37 to looped/cyclic peptides of protein X2 of SARS-CoV Urbani / Binding of serum 6 to linear peptides of protein M of SARS-CoV Urbani / Binding of serum 37 to linear peptides of protein M of SARS-CoV Urbani / Binding of serum 6 to looped/cyclic peptides of protein M of SARS-CoV Urbani / Binding of serum 37 to looped/cyclic peptides of protein M of SARS-CoV Urbani / Binding of serum 6 to linear peptides of protein X3 of SARS-CoV Urbani / Binding of serum 37 to linear peptides of protein X3 of SARS-CoV Urbani / Binding of serum 37 to looped/cyclic peptides of protein X3 of SARS-CoV Urbani / Binding of serum 6 to linear peptides of protein X4 of SARS-CoV Urbani / Binding of serum 37 to linear peptides of protein X4 of SARS-CoV Urbani / Binding of serum 37 to looped/cyclic peptides of protein X4 of SARS-CoV Urbani / Binding of serum 6 to linear peptides of protein X5 of SARS-CoV Urbani / Binding of serum 37 to linear peptides of protein X5 of SARS-CoV Urbani / Binding of serum 37 to looped/cyclic peptides of protein X5 of SARS-CoV Urbani / Binding of serum 6 to linear peptides of protein N of SARS-CoV Urbani / Binding of serum 37 to linear peptides of protein N of SARS-CoV Urbani / Binding of serum 6 to linear peptide (PEPSCAN-ELISA) / Binding of serum 1a to looped/cyclic peptides of protein N of SARS-CoV Urbani / Binding of serum 1b to looped/cyclic peptides of protein N of SARS-CoV Urbani / Binding of serum 2 to looped/cyclic peptides of protein N of SARS-CoV Urbani / Binding of serum 6 to looped/cyclic peptides of protein N of SARS-CoV Urbani / Binding of serum 37 to looped/cyclic peptides of protein N of SARS-CoV Urbani / Binding of serum 62 to looped/cyclic peptides of protein N of SARS-CoV Urbani / Binding of serum London to looped/cyclic peptides of protein N of SARS-CoV Urbani / Binding of serum SARS-green to looped/cyclic peptides of protein N of SARS-CoV Urbani: unit not given here
[2] = tested on: control sera (pooled serum of ten healthy LUMC hospital workers; commercial negative donor pooled serum from the Dutch bloodbank); type: binding, human; set-up: Binding of Control serum LUMC to linear peptides / Binding of Control serum Blood-bank to linear peptides / Binding of Control serum LUMC to looped peptides / Binding of Control Serum Blood-Bank to Looped peptides / Binding of Control serum LUMC to linear peptides of the protein M of SARS-CoV Urbani / Binding of Control serum Blood-bank to linear peptides of the protein M of SARS-CoV Urbani / Binding of Control serum LUMC to looped peptides of the protein M of SARS-CoV Urbani / Binding of Control Serum Blood-Bank to Looped peptides of the protein M of SARS-CoV Urbani: unit not given here
[3] = tested on: rabbit serum obtained by immunizing a rabbit with the SARS-CoV strain Frankfurt 1; type: binding; set-up: Binding of a rabbit serum to linear peptides / Binding of a rabbit serum to looped peptides / Rabbit serum linear peptides / Rabbit serum looped peptides / Binding of a rabbit serum to linear peptides of protein N of SARS-CoV Urbani (Rabbit serum linear peptides) / Binding of a rabbit serum to looped/cyclic peptides of protein N of SARS-CoV Urbani (Rabbit serum looped peptides): unit not given here

Sequence: FQVTIAEILIIIMRT
- Binding of serum 1a to linear peptides of protein X3 of SARS-CoV Urbani [1]: 0.7
- Binding of serum 1a to looped/cyclic peptides of protein X3 of SARS-CoV Urbani [1]: 0.5
- Binding of serum 1b to linear peptides of protein X3 of SARS-CoV Urbani [1]: 0.3
- Binding of serum 1b to looped/cyclic peptides of protein X3 of SARS-CoV Urbani [1]: 0.2
- Binding of serum 2 to linear peptides of protein X3 of SARS-CoV Urbani [1]: 0.6
- Binding of serum 2 to looped/cyclic peptides of protein X3 of SARS-CoV Urbani [1]: 0.5
- Binding of serum 6 to linear peptides of protein X3 of SARS-CoV Urbani [1]: 0.6
- Binding of serum 6 to looped/cyclic peptides of protein X3 of SARS-CoV Urbani [1]: 0.3
- Binding of serum 37 to linear peptides of protein X3 of SARS-CoV Urbani [1]: 0.3
- Binding of serum 37 to looped/cyclic peptides of protein X3 of SARS-CoV Urbani [1]: 0.6
- Binding of serum 62 to linear peptides of protein X3 of SARS-CoV Urbani [1]: 0.5
- Binding of serum 62 to looped/cyclic peptides of protein X3 of SARS-CoV Urbani [1]: 0.4
- Binding of serum London to linear peptides of protein X3 of SARS-CoV Urbani [1]: 0.7
- Binding of serum London to looped/cyclic peptides of protein X3 of SARS-CoV Urbani [1]: 0.2
- Binding of serum SARS-green to linear peptides of protein X3 of SARS-CoV Urbani [1]: 0.5
- Binding of serum SARS-green to looped/cyclic peptides of protein X3 of SARS-CoV Urbani [1]: 0.2
- Binding of serum SARS-yellow to linear peptides of protein X3 of SARS-CoV Urbani [1]: 1.1
- Binding of serum SARS-yellow to looped/cyclic peptides of protein X3 of SARS-CoV Urbani [1]: 0.6
- Binding of Control Serum Blood-Bank to Looped peptides of the protein X3 of SARS-CoV Urbani [2]: 0.7
- Binding of Control serum Blood-bank to linear peptides of the protein X3 of SARS-CoV Urbani [2]: 0.8
- Binding of Control serum LUMC to linear peptides of the protein X3 of SARS-CoV Urbani [2]: 0.4
- Binding of Control serum LUMC to looped peptides of the protein X3 of SARS-CoV Urbani [2]: 0.6
- Rabbit serum linear peptides [3]: 0.2
- Rabbit serum looped peptides [3]: 0.3

Sequence: VTLACFVLAAVYRIN
- Binding of serum 1a to linear peptides of protein M of SARS-CoV Urbani [1]: 0.7
- Binding of serum 1a to looped/cyclic peptides of protein M of SARS-CoV Urbani [1]: 0.8
- Binding of serum 1b to linear peptides of protein M of SARS-CoV Urbani [1]: 0.6
- Binding of serum 1b to looped/cyclic peptides of protein M of SARS-CoV Urbani [1]: 0.6
- Binding of serum 2 to linear peptides of protein M of SARS-CoV Urbani [1]: 0.5
- Binding of serum 2 to looped/cyclic peptides of protein M of SARS-CoV Urbani [1]: 0.6
- Binding of serum 6 to linear peptides of protein M of SARS-CoV Urbani [1]: 0.4
- Binding of serum 6 to looped/cyclic peptides of protein M of SARS-CoV Urbani [1]: 0.8
- Binding of serum 37 to linear peptides of protein M of SARS-CoV Urbani [1]: 0.4
- Binding of serum 37 to looped/cyclic peptides of protein M of SARS-CoV Urbani [1]: 0.7
- Binding of serum 62 to linear peptides of protein M of SARS-CoV Urbani [1]: 0.5
- Binding of serum 62 to looped/cyclic peptides of protein M of SARS-CoV Urbani [1]: 0.7
- Binding of serum London to linear peptides of protein M of SARS-CoV Urbani [1]: 0.3
- Binding of serum London to looped/cyclic peptides of protein M of SARS-CoV Urbani [1]: 0.3
- Binding of serum SARS-green to linear peptides of protein M of SARS-CoV Urbani [1]: 0.5
- Binding of serum SARS-green to looped/cyclic peptides of protein M of SARS-CoV Urbani [1]: 0.2
- Binding of serum SARS-yellow to linear peptides of protein M of SARS-CoV Urbani [1]: 0.1
- Binding of serum SARS-yellow to looped/cyclic peptides of protein M of SARS-CoV Urbani [1]: 0.6
- Binding of Control Serum Blood-Bank to Looped peptides of the protein M of SARS-CoV Urbani [2]: 0.8
- Binding of Control serum Blood-bank to linear peptides of the protein M of SARS-CoV Urbani [2]: 0.5
- Binding of Control serum LUMC to linear peptides of the protein M of SARS-CoV Urbani [2]: 0.5
- Binding of Control serum LUMC to looped peptides of the protein M of SARS-CoV Urbani [2]: 0.7
- Rabbit serum linear peptides [3]: 0.2
- Rabbit serum looped peptides [3]: 0.3
